Some test systems named below: DMS 273 small cell lung; DLD-1 colon; HOP-18 NSCLC; DMS 114 small cell lung; SNB-78 CNS; KM20L2 colon; M19-MEL melanoma; BT-549 breast; MDA-N.
Holding throughout (test): inhibition of tumour cell growth, NCI panel, 48 h

SMILES strings stand for the structures.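 Protocol summary: plate cells (96-well), add compound at 5 concentrations, incubate 48 h, interpolate endpoints linearly. Here, GI50 denotes the concentration required for 50% inhibition of growth. TGI denotes the concentration required for complete inhibition of growth.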

As to `COC1=CC2(C=CC1=O)c1cc(OC)c(OC)cc1CCN2C(=O)c1ccccc1` (centres undefined), the TGI with DMS 273 small cell lung, in the test on DLD-1 colon, with HOP-18 NSCLC, in the test on DMS 114 small cell lung and in the test with SNB-78 CNS was above 100 µM in each case.
For `Cc1nc2ccccc2c(=O)n1-c1ccccc1F`, the TGI in the test with DMS 273 small cell lung, with DLD-1 colon, with HOP-18 NSCLC, in the test with KM20L2 colon, with DMS 114 small cell lung and in the test on M19-MEL melanoma was above 100 µM in each case. Besides, the TGI with SNB-78 CNS was above 100 µM.
As for `CC(C)c1ccc(C(c2ccc(OCC(=O)O)cc2)c2ccc(C(C)C)cc(=O)c2O)c(O)c(=O)c1`, the TGI in the test with DMS 273 small cell lung was 11.2 µM; with DLD-1 colon, 21.3 µM; with HOP-18 NSCLC it was 55.6 µM; with KM20L2 colon it was above 100 µM; in the test on DMS 114 small cell lung it was 8.25 µM; in the test with M19-MEL melanoma it was 69.9 µM. In the test with SNB-78 CNS, this compound showed a TGI of 56.7 µM.
With `Cc1ccc2c(c1)CN(C(=O)CCC(=O)OCc1ccccc1)c1ccc(C)cc1CN2C(=O)CCC(=O)OCc1ccccc1`, the TGI in the test on DMS 273 small cell lung, in the test with DLD-1 colon, with HOP-18 NSCLC, in the test with KM20L2 colon, in the test with DMS 114 small cell lung and in the test with BT-549 breast was above 100 µM in each case. Also, the TGI in the test with MDA-N, with M19-MEL melanoma and in the test on SNB-78 CNS was above 100 µM throughout.
With `CC(=O)O.[Au].c1ccc([PH+](c2ccccc2)c2ccccc2)cc1`, the GI50 was 11.3 µM in the test with DMS 273 small cell lung; 1.9 µM in the test with DLD-1 colon; 2.14 µM with HOP-18 NSCLC; 10.3 µM in the test with KM20L2 colon; 2670 nM in the test with M19-MEL melanoma; 8.06 µM in the test on SNB-78 CNS. For the same compound, the TGI is 55.4 µM with DMS 273 small cell lung; 4.4 µM in the test on DLD-1 colon; 3.86 µM with HOP-18 NSCLC; 35 µM with KM20L2 colon; 15.6 µM with M19-MEL melanoma; above 70.3 µM with SNB-78 CNS.
Consider `CCCS(=O)(=O)/C(=C(\c1ccc(Br)cc1)S(=O)(=O)CCC)c1ccc(Br)cc1`, for which the TGI with DMS 273 small cell lung, with DLD-1 colon, in the test with HOP-18 NSCLC, in the test with KM20L2 colon, in the test on M19-MEL melanoma and with SNB-78 CNS was above 10 µM in each case.
With `CC(=O)N1C/C(=C\c2ccc(N(C)C)cc2)C(=O)/C(=C/c2ccc(N(C)C)cc2)C1`, the TGI in the test with DMS 273 small cell lung was above 100 µM; in the test with DLD-1 colon, above 100 µM; with HOP-18 NSCLC, above 100 µM; with KM20L2 colon, above 100 µM; with DMS 114 small cell lung, 60.1 µM; in the test with M19-MEL melanoma it was above 100 µM. Besides, the TGI in the test on SNB-78 CNS is above 100 µM.
`CC(C)c1cc2c(O)c(c1)Cc1cc(C(C)C)cc(c1O)Cc1cc(C(C)C)cc(c1O)Cc1cc(C(C)C)cc(c1O)C2`: the TGI with DMS 273 small cell lung, in the test with DLD-1 colon, in the test on HOP-18 NSCLC, with KM20L2 colon, with DMS 114 small cell lung and with M19-MEL melanoma was above 100 µM each time. The compound also returned a TGI in the test on SNB-78 CNS above 100 µM.
`N#CCc1ccc(C(C#N)/C(CCCC(=O)Nc2cccc([N+](=O)[O-])c2)=N/NC(N)=S)cc1` (centres undefined): the TGI in the test on DMS 273 small cell lung, in the test with DLD-1 colon, in the test on HOP-18 NSCLC, with KM20L2 colon, in the test on DMS 114 small cell lung and in the test on SNB-78 CNS was above 100 µM each time.
As to `CN(C)C(c1ccccc1)C(O)c1ccccc1` (centres undefined), the TGI with DMS 273 small cell lung, with DLD-1 colon, with HOP-18 NSCLC, in the test on KM20L2 colon, in the test with DMS 114 small cell lung and in the test on M19-MEL melanoma was above 100 µM each time. Further, the TGI in the test with SNB-78 CNS is above 100 µM.
Turning to `CCCCOC(=O)NC(=O)c1cn(C2CCCCC2)c(=O)[nH]c1=O`, the TGI with DMS 273 small cell lung was above 100 µM; in the test with DLD-1 colon it was above 100 µM; in the test on HOP-18 NSCLC, 49.4 µM; in the test on KM20L2 colon, above 100 µM; in the test with DMS 114 small cell lung, above 100 µM; in the test on M19-MEL melanoma it was above 100 µM. In addition, the TGI in the test with SNB-78 CNS was above 100 µM.
`COc1ccc(/C=C\c2cc(OC)c(OC)c(OC)c2)cc1OC(=O)NCCN(C)C`: the TGI was 0.000109 µM in the test with DMS 273 small cell lung; 15.9 µM in the test with DLD-1 colon; above 100 µM with HOP-18 NSCLC; 1.17 µM with KM20L2 colon; below 0.0001 µM in the test with DMS 114 small cell lung; 20.1 µM in the test on M19-MEL melanoma.
Regarding `c1cc[c]([Pb]([c]2ccccc2)[c]2ccccc2)cc1`, the GI50 in the test on DMS 273 small cell lung was 10.4 µM; with DLD-1 colon, 11.9 µM; with HOP-18 NSCLC, 16.8 µM; in the test on KM20L2 colon, 23.3 µM; with DMS 114 small cell lung it was 1920 nM; with SNB-78 CNS, 13.2 µM. For the same compound, the TGI was 27.8 µM in the test on DMS 273 small cell lung; 29.6 µM in the test on DLD-1 colon; 50.8 µM in the test with HOP-18 NSCLC; 91.6 µM in the test with KM20L2 colon; 12.7 µM in the test on DMS 114 small cell lung; above 100 µM with SNB-78 CNS.
Take `FC(F)(F)c1nc(-c2ccccc2)oc1Sc1nnc(Sc2oc(-c3ccccc3)nc2C(F)(F)F)s1`: the TGI in the test with DMS 273 small cell lung is above 100 µM; in the test on DLD-1 colon, above 100 µM; in the test on HOP-18 NSCLC it was above 100 µM; with KM20L2 colon, above 100 µM; in the test with DMS 114 small cell lung it was 21.7 µM; in the test with M19-MEL melanoma, above 57.8 µM. This compound showed a TGI in the test on SNB-78 CNS above 74 µM.
For `O=C(/C=C/c1c(O)ccc2ccccc12)c1ccccc1`, the TGI in the test on DMS 273 small cell lung, with DLD-1 colon, with HOP-18 NSCLC, in the test with KM20L2 colon, in the test on DMS 114 small cell lung and with M19-MEL melanoma was above 100 µM in each case. Moreover, the TGI in the test with SNB-78 CNS was above 100 µM.
With `Cc1[nH]c2ccccc2c1C1Cc2ccccc2N1C(=O)/C(Cl)=C/c1ccccc1` (centres undefined), the TGI with DMS 273 small cell lung, with DLD-1 colon, in the test on HOP-18 NSCLC, in the test with KM20L2 colon, in the test with DMS 114 small cell lung and in the test with M19-MEL melanoma was above 100 µM in each case. The TGI in the test with SNB-78 CNS is above 100 µM.
With `CCOc1ccc2c(c1)[n+]([O-])c(-c1nc3ccccc3s1)c(N)[n+]2[O-]`, the TGI in the test with DMS 273 small cell lung is above 100 µM; in the test with DLD-1 colon it was above 100 µM; in the test on HOP-18 NSCLC, 92.1 µM; in the test on KM20L2 colon it was above 100 µM; in the test with DMS 114 small cell lung, above 100 µM; in the test with M19-MEL melanoma, above 100 µM. In the test with SNB-78 CNS, the TGI is above 100 µM.
For the compound `N#C/C(=C\c1cc2ccccc2c2ccccc12)c1ccccc1`, the TGI was 8.73 µM in the test on DMS 273 small cell lung; above 90.2 µM with DLD-1 colon; above 61.2 µM in the test with HOP-18 NSCLC; 13.8 µM with KM20L2 colon; above 36.1 µM in the test with DMS 114 small cell lung; above 100 µM with M19-MEL melanoma. Besides, in the test on SNB-78 CNS, the TGI stood at 34.2 µM.
As for `COc1ccc(/C(Cl)=C(\C=O)c2ccc([N+](=O)[O-])cc2)cc1`, the TGI is 58.7 µM in the test on DMS 273 small cell lung; 63.1 µM with DLD-1 colon; above 100 µM in the test on HOP-18 NSCLC; 41.8 µM with KM20L2 colon; 68.5 µM in the test on DMS 114 small cell lung; 50.1 µM with SNB-78 CNS.
